Molecular target: T1, SMARCA2 (Homo sapiens, UniProt P51531)
T1 construct: endogenous in cells
Experiment: SMARCA2 HiBiT degradation assay (cellular)
Format: cell-based
Details: for Emax: A549, Emax = amount of residual protein remaining in the cell following compound treatment; for DC50: SMARCA2 HiBiT cells, luminescence readout, 11-point titration from 10 μM, 6 hours or 16 hours, read-out: HiBit A549 SMARCA2 IP

T1 sequence (P51531 whole entry): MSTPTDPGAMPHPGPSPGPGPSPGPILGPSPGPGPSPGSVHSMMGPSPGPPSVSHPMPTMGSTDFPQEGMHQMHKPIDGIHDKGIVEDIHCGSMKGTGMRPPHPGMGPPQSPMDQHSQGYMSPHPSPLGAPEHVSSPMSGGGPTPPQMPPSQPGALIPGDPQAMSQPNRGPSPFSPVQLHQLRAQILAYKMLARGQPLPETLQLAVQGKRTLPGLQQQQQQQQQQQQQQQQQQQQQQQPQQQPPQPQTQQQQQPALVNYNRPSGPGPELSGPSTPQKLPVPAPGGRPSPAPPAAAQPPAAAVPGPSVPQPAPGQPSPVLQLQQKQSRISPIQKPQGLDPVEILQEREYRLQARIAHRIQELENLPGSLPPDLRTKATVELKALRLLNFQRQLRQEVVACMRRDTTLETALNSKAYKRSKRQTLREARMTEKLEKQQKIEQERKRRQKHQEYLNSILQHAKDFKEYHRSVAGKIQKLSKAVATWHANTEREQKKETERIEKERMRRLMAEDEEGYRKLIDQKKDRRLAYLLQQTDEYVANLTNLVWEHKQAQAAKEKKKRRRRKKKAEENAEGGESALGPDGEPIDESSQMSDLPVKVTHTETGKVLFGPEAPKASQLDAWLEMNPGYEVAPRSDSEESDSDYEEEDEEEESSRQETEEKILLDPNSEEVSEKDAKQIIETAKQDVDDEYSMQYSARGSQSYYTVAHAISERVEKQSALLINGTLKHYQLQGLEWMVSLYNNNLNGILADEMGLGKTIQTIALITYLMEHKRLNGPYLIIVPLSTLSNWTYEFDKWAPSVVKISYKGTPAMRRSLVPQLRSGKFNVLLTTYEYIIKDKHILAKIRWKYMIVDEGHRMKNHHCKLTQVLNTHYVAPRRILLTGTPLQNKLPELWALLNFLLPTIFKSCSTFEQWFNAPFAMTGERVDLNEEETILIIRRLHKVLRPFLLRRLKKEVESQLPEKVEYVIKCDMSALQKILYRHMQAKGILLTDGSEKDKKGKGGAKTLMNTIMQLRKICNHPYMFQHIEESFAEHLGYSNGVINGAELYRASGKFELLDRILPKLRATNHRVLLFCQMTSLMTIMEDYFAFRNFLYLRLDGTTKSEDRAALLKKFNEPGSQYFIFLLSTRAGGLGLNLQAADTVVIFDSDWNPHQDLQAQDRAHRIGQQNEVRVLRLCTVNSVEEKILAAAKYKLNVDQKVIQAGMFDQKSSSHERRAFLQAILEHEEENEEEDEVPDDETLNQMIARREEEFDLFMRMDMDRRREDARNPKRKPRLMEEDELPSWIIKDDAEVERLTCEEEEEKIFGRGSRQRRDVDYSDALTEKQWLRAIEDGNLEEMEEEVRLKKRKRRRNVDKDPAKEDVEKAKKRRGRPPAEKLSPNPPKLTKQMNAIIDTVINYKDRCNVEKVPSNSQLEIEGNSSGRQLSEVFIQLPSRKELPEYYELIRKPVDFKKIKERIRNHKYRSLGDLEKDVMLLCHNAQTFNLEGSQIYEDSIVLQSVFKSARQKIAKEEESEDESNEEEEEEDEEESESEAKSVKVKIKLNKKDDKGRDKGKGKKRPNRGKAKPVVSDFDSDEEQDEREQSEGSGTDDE

Row | Emax [%] | DC50 [nM] | SMILES
1 | 25 | 223 | Cc1ncsc1-c1ccc([C@H](C)NC(=O)[C@@H]2C[C@@H](O)CN2C(=O)[C@@H](NC(=O)CCCCCCCCC(=O)N2CCN(Cc3cccc(OC4CN(c5cc(-c6ccccc6O)nnc5N)C4)c3)CC2)C(C)(C)C)cc1 [Example 86, (2S,4R)-1-[(2S)-2-[[10-[4-[[3-[1-[3-amino-6-(2-hydroxyphenyl)pyridazin-4-yl]azetidin-3-yl]oxyphenyl]methyl]piperazin-1-yl]-10-oxo-decanoyl]amino]-3,3-dimethyl-butanoyl]-4-hydroxy-N-[(1S)-1-[4-(4-methylthiazol-5-yl)phenyl]ethyl]pyrrolidine-2-carboxamide]
2 | 51 | 1300 | Cc1ncsc1-c1ccc(CNC(=O)[C@@H]2C[C@@H](O)CN2C(=O)[C@@H](NC(=O)CCCCCCCN2CCN(C(=O)CN(C)Cc3ccc(-c4cc(-c5ccccc5O)nnc4N)cc3)CC2)C(C)(C)C)cc1 [Example 87, (2S,4R)-1-[(2S)-2-[8-[4-[2-[[4-[3-amino-6-(2-hydroxyphenyl)pyridazin-4-yl]phenyl]methyl-methyl-amino]acetyl]piperazin-1-yl]octanoylamino]-3,3-dimethyl-butanoyl]-4-hydroxy-N-[[4-(4-methylthiazol-5-yl)phenyl]methyl]pyrrolidine-2-carboxamide]
3 | 56 | 1010 | Cc1ncsc1-c1ccc(CNC(=O)[C@@H]2C[C@@H](O)CN2C(=O)[C@@H](NC(=O)CCCCCCCCC(=O)NC2C3CCC2CN(c2cc(-c4ccccc4O)nnc2N)C3)C(C)(C)C)cc1 (stereo partly drawn) [Example 89, N-[3-[3-amino-6-(2-hydroxyphenyl)pyridazin-4-yl]-3-azabicyclo[3.2.1]octan-8-yl]-N′-[(1S)-1-[(2S,4R)-4-hydroxy-2-[[4-(4-methylthiazol-5-yl)phenyl]methylcarbamoyl]pyrrolidine-1-carbonyl]-2,2-dimethyl-propyl]decanediamide]
4 | 43 | 693 | Cc1ncsc1-c1ccc([C@H](C)NC(=O)[C@@H]2C[C@@H](O)CN2C(=O)[C@@H](NC(=O)CCCCCC(=O)N2CCN(c3cccc(OC4CN(c5cc(-c6ccccc6O)nnc5N)C4)c3)CC2)C(C)(C)C)cc1 [Example 94, (2S,4R)-1-[(2S)-2-[[7-[4-[3-[1-[3-amino-6-(2-hydroxyphenyl)pyridazin-4-yl]azetidin-3-yl]oxyphenyl]piperazin-1-yl]-7-oxo-heptanoyl]amino]-3,3-dimethyl-butanoyl]-4-hydroxy-N-[(1S)-1-[4-(4-methylthiazol-5-yl)phenyl]ethyl]pyrrolidine-2-carboxamide]
5 | 50 | 2440 | Cc1ncsc1-c1ccc(CNC(=O)[C@@H]2C[C@@H](O)CN2C(=O)[C@@H](NC(=O)CCCCCCCCC(=O)N[C@H]2C[C@H](Oc3cc(-c4ccccc4O)nnc3N)C2)C(C)(C)C)cc1 [Example 95, N-[3-[3-amino-6-(2-hydroxyphenyl)pyridazin-4-yl]oxycyclobutyl]-N′-[(1S)-1-[(2S,4R)-4-hydroxy-2-[[4-(4-methylthiazol-5-yl)phenyl]methylcarbamoyl]pyrrolidine-1-carbonyl]-2,2-dimethyl-propyl]decanediamide]
6 | 28 | 200 | Cc1ncsc1-c1ccc([C@H](C)NC(=O)[C@@H]2C[C@@H](O)CN2C(=O)[C@@H](NC(=O)CCCCCCCCC(=O)N2CCN(c3cccc(OC4CN(c5cc(-c6ccccc6O)nnc5N)C4)c3)CC2)C(C)(C)C)cc1 [Example 96, (2S,4R)-1-[(2S)-2-[[10-[4-[3-[1-[3-amino-6-(2-hydroxyphenyl)pyridazin-4-yl]azetidin-3-yl]oxyphenyl]piperazin-1-yl]-10-oxo-decanoyl]amino]-3,3-dimethyl-butanoyl]-4-hydroxy-N-[(1S)-1-[4-(4-methylthiazol-5-yl)phenyl]ethyl]pyrrolidine-2-carboxamide]

Further lines, the compound ahead of its results:

Row | SMILES | Emax [%] | DC50 [nM]
7 | Cc1ncsc1-c1ccc([C@H](C)NC(=O)[C@@H]2C[C@@H](O)CN2C(=O)[C@@H](NC(=O)CCCCCCCCCCC(=O)N2CCN(CCOc3cccc(CCOc4cc(-c5ccccc5O)nnc4N)c3)CC2)C(C)(C)C)cc1 [Example 59, (2S,4R)-1-[(2S)-2-[[12-[4-[2-[3-[2-[3-amino-6-(2-hydroxyphenyl)pyridazin-4-yl]oxyethyl]phenoxy]ethyl]piperazin-1-yl]-12-oxo-dodecanoyl]amino]-3,3-dimethyl-butanoyl]-4-hydroxy-N-[(1S)-1-[4-(4-methylthiazol-5-yl)phenyl]ethyl]pyrrolidine-2-carboxamide] | 23 | 305
8 | Cc1ncsc1-c1ccc([C@H](C)NC(=O)[C@@H]2C[C@@H](O)CN2C(=O)[C@@H](NC(=O)CCCCCCCCCCCCC(=O)N2CCN(CCOc3cccc(CCOc4cc(-c5ccccc5O)nnc4N)c3)CC2)C(C)(C)C)cc1 [Example 60, (2S,4R)-1-[(2S)-2-[[14-[4-[2-[3-[2-[3-amino-6-(2-hydroxyphenyl)pyridazin-4-yl]oxyethyl]phenoxy]ethyl]piperazin-1-yl]-14-oxo-tetradecanoyl]amino]-3,3-dimethyl-butanoyl]-4-hydroxy-N-[(1S)-1-[4-(4-methylthiazol-5-yl)phenyl]ethyl]pyrrolidine-2-carboxamide] | 24 | 300
9 | Cc1ncsc1-c1ccc(CNC(=O)[C@@H]2C[C@@H](O)CN2C(=O)[C@@H](NC(=O)CCCCCC(=O)N2CCN(Cc3cccc(C#Cc4cc(-c5ccccc5O)nnc4N)c3)CC2)C(C)(C)C)cc1 [Example 61, (2S,4R)-1-[(2S)-2-[[7-[4-[[3-[2-[3-amino-6-(2-hydroxyphenyl)pyridazin-4-yl]ethynyl]phenyl]methyl]piperazin-1-yl]-7-oxo-heptanoyl]amino]-3,3-dimethyl-butanoyl]-4-hydroxy-N-[[4-(4-methylthiazol-5-yl)phenyl]methyl]pyrrolidine-2-carboxamide] | 59 | 519
10 | Cc1ncsc1-c1ccc(CNC(=O)[C@@H]2C[C@@H](O)CN2C(=O)[C@@H](NC(=O)CCCCCCCCC(=O)N2CCN(CCOc3ccc(N4C5CCC4CN(c4cc(-c6ccccc6O)nnc4N)C5)cc3)CC2)C(C)(C)C)cc1 [Example 68, (2S,4R)-1-[(2S)-2-[[10-[4-[2-[4-[3-[3-amino-6-(2-hydroxyphenyl)pyridazin-4-yl]-3,8-diazabicyclo[3.2.1]octan-8-yl]phenoxy]ethyl]piperazin-1-yl]-10-oxo-decanoyl]amino]-3,3-dimethyl-butanoyl]-4-hydroxy-N-[[4-(4-methylthiazol-5-yl)phenyl]methyl]pyrrolidine-2-carboxamide] | 50 | 2320
11 | Cc1ncsc1-c1ccc([C@H](C)NC(=O)[C@@H]2C[C@@H](O)CN2C(=O)[C@@H](NC(=O)CCC(=O)N2CCN(CCOc3cccc(CCOc4cc(-c5ccccc5O)nnc4N)c3)CC2)C(C)(C)C)cc1 [Example 73, (2S,4R)-1-[(2S)-2-[[4-[4-[2-[3-[2-[3-amino-6-(2-hydroxyphenyl)pyridazin-4-yl]oxyethyl]phenoxy]ethyl]piperazin-1-yl]-4-oxo-butanoyl]amino]-3,3-dimethyl-butanoyl]-4-hydroxy-N-[(1S)-1-[4-(4-methylthiazol-5-yl)phenyl]ethyl]pyrrolidine-2-carboxamide] | 29 | 1650
12 | Cc1ncsc1-c1ccc(CNC(=O)[C@@H]2C[C@@H](O)CN2C(=O)[C@@H](NC(=O)CCCCCCCCC(=O)N2CCN(Cc3cccc(-c4cc(-c5ccccc5O)nnc4N)c3F)CC2)C(C)(C)C)cc1 [Example 74, (2S,4R)-1-[(2S)-2-[[10-[4-[[3-[3-amino-6-(2-hydroxyphenyl)pyridazin-4-yl]-2-fluoro-phenyl]methyl]piperazin-1-yl]-10-oxo-decanoyl]amino]-3,3-dimethyl-butanoyl]-4-hydroxy-N-[[4-(4-methylthiazol-5-yl)phenyl]methyl]pyrrolidine-2-carboxamide] | 63 | 575
13 | Cc1ncsc1-c1ccc([C@H](C)NC(=O)[C@@H]2C[C@@H](O)CN2C(=O)[C@@H](NC(=O)CCCCCC(=O)N2CCN(Cc3cccc(OC4CN(c5cc(-c6ccccc6O)nnc5N)C4)c3)CC2)C(C)(C)C)cc1 [Example 83, (2S,4R)-1-[(2S)-2-[[7-[4-[[3-[1-[3-amino-6-(2-hydroxyphenyl)pyridazin-4-yl]azetidin-3-yl]oxyphenyl]methyl]piperazin-1-yl]-7-oxo-heptanoyl]amino]-3,3-dimethyl-butanoyl]-4-hydroxy-N-[(1S)-1-[4-(4-methylthiazol-5-yl)phenyl]ethyl]pyrrolidine-2-carboxamide] | 44 | 789
14 | Cc1ncsc1-c1ccc(CNC(=O)[C@@H]2C[C@@H](O)CN2C(=O)[C@@H](NC(=O)CCCCCCCCCCC(=O)N2C3CCC2CN(c2cc(-c4ccccc4O)nnc2N)C3)C(C)(C)C)cc1 [Example 84, (2S,4R)-1-[(2S)-2-[[12-[3-[3-Amino-6-(2-hydroxyphenyl)pyridazin-4-yl]-3,8-diazabicyclo[3.2.1]octan-8-yl]-12-oxo-dodecanoyl]amino]-3,3-dimethyl-butanoyl]-4-hydroxy-N-[[4-(4-methylthiazol-5-yl)phenyl]methyl]pyrrolidine-2-carboxamide] | 38 | 902
15 | Cc1ncsc1-c1ccc(CNC(=O)[C@@H]2C[C@@H](O)CN2C(=O)[C@@H](NC(=O)CCCCCC(=O)N2C3CCC2CN(c2cc(-c4ccccc4O)nnc2N)C3)C(C)(C)C)cc1 [Example 85, (2S,4R)-1-[(2S)-2-[[7-[3-[3-Amino-6-(2-hydroxyphenyl)pyridazin-4-yl]-3,8-diazabicyclo[3.2.1]octan-8-yl]-7-oxo-heptanoyl]amino]-3,3-dimethyl-butanoyl]-4-hydroxy-N-[[4-(4-methylthiazol-5-yl)phenyl]methyl]pyrrolidine-2-carboxamide] | 31 | 2190
